In a melting point compilation (Tetko et al.; mined from patent text by program, amines drawn as free bases though some values may be those of a salt):

SMILES | melting point [°C]
C=Cc1c(N)cc(Cl)nc1C(=O)OC | 53 to 54
Clc1cc(Cl)c(OCOCOc2c(Cl)cc(Cl)cc2Cl)c(Cl)c1 | 179 to 181
Cc1cccc2nc3c(=O)[nH][nH]c(=O)c3c(O)c12 | 167 to 168
O=C1NCCc2c[nH]c3cccc1c23 | 234
FC(F)(F)c1cccc(C(c2ccc3ncccc3c2Cl)n2cncn2)c1 (stereo not drawn) | 144
N#CCCCCCCCCn1nnc(-c2ccccc2)c1-c1ccccc1 | 77 to 78
CC(C)n1cc(-c2ccccc2)c(=O)c(-c2ccccc2)c1 | 152
CON=C(C(=O)O)c1nc(N)c(Cl)cc1Cl | 139 to 144
COc1cc(C)c(C(=O)c2c(Cl)cncc2C(F)(F)F)c(OC)c1OC | 75 to 77
FC(F)(F)c1ccc(Oc2ccc3nonc3c2)c(Cl)c1 | 65 to 66
Cc1ccc([C@@H]2C[C@H]3C=C(c4n[nH]c(-c5ccc(F)cc5)c4-c4ccncc4)CCN3C2)cc1 | 222 to 225
NCC(=O)Nc1c(Br)cc(Br)cc1Br | 185 to 186
COc1ccc(C=CC(=O)C=Cc2ccc(OC)c(OC)c2)cc1OC | 68 to 70
CC1(CCOc2ccc(/C=C/C(=O)O)c(Oc3ncc(C(F)(F)F)cc3Cl)c2)OCCO1 | 144 to 146
COc1nc2ncnc(NCc3ccco3)c2[nH]1 | 196 to 198
CCN1C(=O)CC(=O)N(CC)C1=O | 52
CC(=O)n1cc(C#N)c(-c2cccc(Cl)c2Cl)c1 | 136 to 137
CCc1c[nH]c2c3c(ccc12)OCC3 | 91 to 92.5
COc1cc2cc3c(Nc4ccc(Sc5nccn5C)c(Cl)c4)c(C#N)cnc3cc2cc1OCCn1nccn1 | 235 to 237
Cc1cccc2nc(C(C)Nc3ncnc4c3ncn4COCC[Si](C)(C)C)n(-c3cccc(C(N)=O)c3)c(=O)c12 (stereo not drawn) | 195 to 197
CC(=O)OC(OC(C)=O)c1ccc2occ(C#N)c(=O)c2c1 | 185 to 186
C=C1C=C(Oc2cc(C(=O)Nc3c(Cl)cncc3Cl)ccc2OC)C1(F)F | 102 to 104
CCN1CC2=C3C(=NN(c4ccc(C(C)C)cc4Br)C(=O)N3CC2)C(C)=N1 | 144 to 146
COc1cc(OC)cc(C2CC=CCC2=O)c1 (stereo not drawn) | 60 to 62

SMILES | melting point [°C]
COc1c(C=NO)ccc2c1OCO2 | 118 to 119
COCOc1cccc(NC(=O)OC(C)(C)C)c1I | 82 to 84
CCc1noc(-c2cn(-c3cc(Cl)ccc3OCc3ccccc3)cn2)n1 | 100 to 102
COc1cc(OC)c2ccsc2c1 | 78 to 80
CN(C)c1ccc2[nH]c(=O)oc(=O)c2c1 | 258
COC(=O)c1ccnc(Nc2cc(OC)cc(C(F)(F)F)c2)c1 | 178 to 179
CCCc1nnc(/C=C/c2cn(-c3ccccc3)nc2OCc2ccc(OCc3nc(-c4ccco4)oc3C)c(OC)c2)o1 | 165 to 166
COCc1cc(OC)c(C=O)c(OC)c1 | 72 to 76
O=C(c1cccs1)c1cnn2c(-c3cccc(NC(=O)C4CC4)c3)ccnc12 | 191 to 192
COC(=O)Cc1c(O)ncnc1O | > 200
O=C(O)c1cn(C2COC2)c2cc(F)c(F)c(O)c2c1=O | 273 to 276
CC(=CN(C)C)C(=O)c1ccc(Cl)cc1 | 45 to 47
CC(C)(Br)C(=O)NCc1ccccc1 | 73.4 to 75.5
CCN(CC)C(=O)C(C)Oc1nc(-c2ccccc2)cc2ccccc12 (stereo not drawn) | 117
CC(C)NC(=O)Oc1ccccc1 | 81 to 82
CCNC(=O)c1c(Cl)cccc1N(C)C(C)(C)C | 106 to 108
Cc1ccc2c(c1)C1(COc3cc4c(cc31)OCCO4)C(=O)N2Cc1ncccc1C(F)(F)F (stereo not drawn) | 137 to 139
Cc1ccc(I)c(CC(=O)OC(C)C)c1 | 48 to 50
CC(C)c1ccc(C(Cl)=NO)cc1 | 61 to 63
CCCCCCCCCCCOc1ccc(C(=O)O)cc1OCCCCCCCCCCC | 98 to 101
CON1CCC(C#N)(NO)CC1 | 130 to 131
Cc1[nH]c(=O)[nH]c1-c1cc(C(C)(C)C)c(O)c(C(C)(C)C)c1 | > 270
CN1CC(=O)N2CCC[C@H]2C1=O | 133 to 135
CC1CN(c2c(F)cc3c(=O)c(C(=O)O)cn(CCF)c3c2F)CC1CN (stereo not drawn) | 228 to 232

The remaining lines, values ahead:

melting point [°C] | SMILES
201 to 202 | NC(=O)C1CCN(c2ncncc2Cl)CC1
227 to 228 | C1=C2NCCCN2Cc2ccccc2C1c1ccccc1 (stereo not drawn)
195 | COc1ccc(N2CCN(c3ccc([N+](=O)[O-])cc3)CC2)cc1
120 to 122 | CCN1CCCCC1CCc1ccccc1NC(=O)C=Cc1ccccc1 (stereo not drawn)
257 to 259 | O=C1CCC(N2C(=O)c3cccc(NC(=O)c4cccc(Cl)c4)c3C2=O)C(=O)N1 (stereo not drawn)
159 to 161 | CCCCNc1cc(C(=O)OCC#N)cc(S(N)(=O)=O)c1Oc1ccccc1
139 to 141 | O=C(NO)c1ccc(CNC(=O)c2[nH]c(-c3ccccc3)cc2-c2ccc(O)cc2)cc1
201 to 203 | NS(=O)(=O)c1ccc(NC(=O)C(=O)N2CCC(Cc3ccc(F)cc3)CC2)cc1
96 to 99 | COc1ccccc1CN1N=C(c2ccc(OC)c(OC)c2)[C@@H]2CCCC[C@@H]2C1=O (relative stereo)
263 to 265 | O=C(O)c1cnc2ccc(C3CCCCC3)cc2c1O
159 to 160 | Cc1ccccc1C(=O)Nn1cc(-c2ccccc2)nc1S
145 to 148 | CCOC(=O)N1CCC(c2ccc3oc(-c4ccc(S(C)(=O)=O)cc4F)nc3c2)CC1
158 to 161 | Cc1cccc(NC(=O)NCc2ccc(-c3n[nH]c4c3Cc3cc(CN5CCOCC5)ccc3-4)s2)c1
118 to 120 | Clc1ccc(CC(OC2CCCC(Cn3ccnc3)O2)c2ccccc2)c(Cl)c1 (stereo not drawn)
208 | COc1ccc(C(=O)Nc2ccc3ccc(Oc4ccccc4F)nc3n2)cc1
> 300 | O=c1ccc2c(-c3ccncc3)nccc2[nH]1
132 | COc1cccc2nc(-c3ccc(C)cc3)cc(OCC(=O)N3CCOCC3)c12
125 to 127 | Cc1nccn1CCNC(=O)c1cccc2oc(-c3ccccc3)nc12
167 to 169 | CCCS(=O)(=O)Cc1cc2oc(S(N)(=O)=O)cc2cn1
139 to 140 | CCCCn1c(=O)n(CCN2CCN(c3ccccc3OC)CC2)c(=O)c2sccc21
175 to 176 | CCOC(=O)C(=O)CC(=O)c1cn(Cc2ccc([N+](=O)[O-])cc2)c2ccccc2c1=O
139 | Nc1cc(=O)n(Cc2ccc(Br)cc2)[nH]1
97 to 98 | COC(=O)C(C)(C)c1ccc2cc(OC)ccc2c1
264 to 266 | COC(=O)c1ccc(N2C(=O)C(O)=C(C(=O)c3ccc(C)cc3)C2c2ccc(C(C)C)cc2)nc1 (stereo not drawn)
135 to 140 | C[C@H](c1ccccc1)n1c(N)nc2c(N)nc3ccccc3c21
39 to 45 | CC(C)C(C)(C#N)N1C(=O)C=C(Nc2ccccc2CO)C1=O (stereo not drawn)
176 to 178 | O=C(NN1CCN(Cc2c[nH]c3ccccc23)CC1)c1ccccc1
278 | O=C(O)c1ccc2cc(-c3ccc(OCC(O)CO)c(C45CC6CC(CC(C6)C4)C5)c3)ccc2c1 (stereo not drawn)

melting point [°C] | SMILES
245 to 247 | CN(C)c1n[nH]c(-c2ccc(F)cc2)c1-c1ccncc1
211 to 212 | COc1ccc(N2C(=O)[C@H](O)[C@@H]2c2ccccc2)cc1
204 to 205 | O=C1C(=Cn2ccnc2)C(c2ccc(Cl)cc2)c2ccc(Cl)cc21 (stereo not drawn)
90 | COC(=S)CCC[C@@H](O)[C@@H](c1ccccc1)c1ccc2ccccc2c1 (relative stereo)
119 to 121 | CN1CCN(CCc2ccc(Nc3ncc4c(n3)-c3ccccc3C(c3ccc(Cl)c(Cl)c3)C4)cc2)CC1 (stereo not drawn)
72 to 74 | c1ccc(-c2ccc(CCOc3ncnc4ccccc34)cc2)cc1
84.5 to 87 | COC(=O)C(Oc1ccc(F)cc1)c1ccc(Sc2ccc(Cl)cc2)cc1 (stereo not drawn)
143 to 144 | COc1nnc(-c2ccc3occ(-c4ccc(OC(F)(F)F)cc4)c3c2)o1
176 to 179 | Cn1nnnc1-c1ccccc1S(N)(=O)=O
118 to 120 | CCOC(=O)c1ccc(C=C(C)c2cc3c(s2)C(C)(C)CCC3(C)C)cc1
136 to 138 | C=CC(=O)NC(Cc1ccccc1)C(=O)O (stereo not drawn)
59 to 63 | COC(=O)CC1=c2ccccc2=Cc2ccccc2O1
164 to 165 | COc1ccc(/C(=C\C=C\C(=O)NCCCCc2cccnc2)c2ccccc2OC)cc1
138 | CCc1nccn1CCc1ccc(Nc2ncc(C#N)c(-c3ccc(C(C)(C)N)cc3)n2)cc1
100 | CC(C)(Oc1ccc(Cl)cc1)C(=O)C(Oc1cccc(Cl)n1)n1cncn1 (stereo not drawn)
85 to 90 | CS(=O)(=O)Nc1ccc(C(CC2CCCC2)C(=O)Nc2nccs2)cc1 (stereo not drawn)
203 to 204 | CC(C)c1csc(/C=C/c2cccc(NC(=O)Cc3ccccc3C(=O)O)c2)n1
154 to 156 | CCN(CC)CCn1c2ccccc2c(=NNC(N)=S)c2ccccc21
188 | CCOC(=O)c1sc2c(c1C)c(N)c(C(=O)c1ccccc1)n2C(C)=O
234 to 235 | CCOc1cccc(C(c2ccccc2Cl)n2nc(C(=O)O)c3c2-c2ccc(OCc4cncnc4)cc2CC3)c1 (stereo not drawn)
265 to 267 | N#CNC(=O)C=NNc1ccc(F)cc1
34 to 35 | CCOC(=O)C(Cc1ccc(C(F)(F)F)cc1)C(=O)c1ccc(F)cc1F (stereo not drawn)
257 to 258 | Cc1c(F)cc(C(C)(C)C)c(O)c1-c1nc2ccc(S(=O)(=O)C(F)(F)F)cc2c(=O)[nH]1
195 to 196 | Oc1ccc(Nc2ccc3cc(O)ccc3c2)cc1
125 to 128 | CCCn1ccnc(S(=O)(=O)Cc2ccc(Cl)cc2)c1=O
158 to 159 | COc1cc(Cc2cc3cccc(-c4cccc(C(=O)NCCC#N)c4)c3s2)ccc1F
194 to 198 | COc1nc(NC(=O)NS(=O)(=O)c2ccccc2C)nc(N(C)C)n1
